Values of other authors in patent publication US20230210112A1, “METHOD FOR GROWING PLANTS” (Taminco BV, priority 2020, published 2023).

Tests used:
[1] = test system: pests; details: in vivo
[2] = test system: Tomato plants; details: treated tomato seedlings
[3] = test system: cauliflower seedlings; details: 20 mM BABA

Row | Structure (SMILES) | Effect on plant growth or development (in words) [1] | Resistance-inducing activity (in words) [1] | Concentration at which root growth repression was observed (as low as) [2] [µM] | Reduction in growth of cauliflower seedlings [3] [%]
1 | N[C@@H](CO)CC(=O)O [(R)-beta-homoserine] | without affecting plant growth or development | strong resistance-inducing activity |  | 
2 | CC(N)CC(=O)O (stereo not drawn) [BABA, beta-aminobutyric acid] |  |  | 500 | 14.7
3 | CC/C=C\C[C@H]1C(=O)CC[C@@H]1CC(=O)O [JA, jasmonic acid] |  |  | 250 | 
